Active and inactive are the calls of the source. The rule behind the calls is not given here.
tested on: Aspergillus fumigatus; test: Antifungal activity against Aspergillus fumigatus; type: functional, organism-based

Row | SMILES | Activity
1 | CC[C@@H](C)C1=CC(=O)[C@H]2[C@H](O)[C@H](O)C[C@@H](C)[C@@H]2[C@@]1(C)C(=O)CCO | inactive
2 | CC[C@@H](C)[C@H]1C=C[C@H]2[C@H](O)[C@H](O)C[C@@H](C)[C@@H]2[C@@]1(C)C(=O)CCO | inactive
3 | CC[C@@H](C)[C@H]1C=C[C@H]2[C@H](O)[C@@H](O)C[C@@H](C)[C@@H]2[C@@]1(C)C(=O)CCO | inactive
